“Also recorded” adds a separate entry of the source.
Assays:
[1] = test system: presynaptic terminals of cultured hippocampal neurons; test: TBS-induced presynaptic plasticity measured by FM 1-43 dye uptake in hippocampal cultures; type: cell-based, rat
[2] = test system: recognition memory of 1-year old rats; test: novel object recognition; conditions: rat, in vivo
Method: Behavior test: Novel object recognition. The subjects were 20 experimentally naive, female, Sprague-Dawley rats (Charles River), 1 year old at the beginning of the experiment. They were housed two per cage with continuous access to food and water under a 12:12 light-dark cycle, with light onset at 8:00 a.m. Rats in the Mg^++-treated group received drinking water containing 6 mg/kg/day MgCl2 for 4 months before experiments.
The rats were first habituated to the open-field arena by allowing them to explore it for two daily 15-min sessions. Two identical objects were present in the arenas during habituation sessions; those objects were not used in the subsequent experimental trials. The rat was placed into the arena with two identical sample objects and allowed to explore for 10 min (familiarization phase). For the double-training test, the familiarization phase was repeated with the interval of 10 min. The rat was then removed and the objects were replaced with two new objects; one of the new objects was identical to the sample and the other was a novel object that the rat had never before encountered. The rat was returned to the arena for the retention test and allowed to explore for 5 min (retention test). The retention intervals were 10 min and 24 hours. Rats spent the retention interval in a cage in the colony room. Objects were cleaned thoroughly between trials with 20% ethanol solution to ensure the absence of olfactory cues. The particular objects for a given trial were randomly determined, but each object was used for only one trial per rat.
The criteria for exploration were strictly based on active exploration, in which rats had to be sniffing or touching the object with the nose and/or forepaws. The main dependent measure was the exploration ratio, that is, the proportion of total object-exploration that was spent exploring the novel object (tnovel/[tnovel+tfamiliar]) during the 5-min test phase. To determine whether the rats discriminated between the novel and familiar objects, the exploration ratios obtained under each condition were compared with what would be expected by chance (i.e., a ratio of ˜50%), using one-sample Student's t tests.

[3] = test system: excitatory and inhibitory terminals

[Mg+2] [Mg^++]
F2/F1 [1]: 2.3±0.1 | N2/N1 [1]: 2.1±0.1 | Pr increase after TBS [1]: 2.3 fold | enhancement of synaptic plasticity [1]: ~2 fold | increase in number of detectable FM puncta after TBS [1]: 2.1 fold | increase in total presynaptic strength after TBS [1]: 5.5 fold | increase in total presynaptic strength after induction [1]: 3.9 fold | increase of plasticity of presynaptic terminals (S2/S1) [1]: 2.4 fold | increase of synaptic strength at optimum concentration [1]: up to approximately five-fold | optimal concentration for plasticity (maximal potentiability) [1]: 1.2 mM | plasticity of presynaptic terminals after partial block of Ca flux [1]: significant increases of plasticity | plasticity under long term treatments [1]: retain high plasticity persistently | time for which potentiation was stable [1]: at least 1.5 hours | effect on exploratory activity or motivation [2]: no effect on exploratory activity or motivation | exploratory preference towards the novel object, short-term and long-term memory trials [2]: significant exploratory preference towards the novel object | preference to the novel object, long-term [2]: 60% | preference to the novel object, short-term memory test [2]: 75% | preference towards the novel object, long-term memory test [2]: retained the same level of preference for 24 hours; also recorded: significant exploratory preference towards the novel object in long-term memory trials | total time exploring both identical objects during training [2]: 24.1 ± 2.5 s | increase of synaptic density [3]: ~30% | neuronal density and morphology [3]: normal neuronal density and morphology
